Where two headings read alike, the source gives them in different places.
How the values were obtained:
Format in all cases: binding
[1] = target: T1, FBW7^ARG+pCycE (Homo sapiens, UniProt Q969H0, R505L); test: FBW7^ARG-cyclin E agonist ALPHAscreen (primary PRUN, confirmation CRUN1, dose-response DRUN); conditions: for EC50 / Emax: DRUN dose-response; for Emax: relative to WT-FBW7+pCycE, read-out: FBW7 ACT Averaged Max % Response
T1 construct: GST (TEV site and flexible linker) (N, cleaved yes); made in house; host or cells: SF9 insect cells (baculovirus)
T1 sequence (Q969H0 64-707 R505L): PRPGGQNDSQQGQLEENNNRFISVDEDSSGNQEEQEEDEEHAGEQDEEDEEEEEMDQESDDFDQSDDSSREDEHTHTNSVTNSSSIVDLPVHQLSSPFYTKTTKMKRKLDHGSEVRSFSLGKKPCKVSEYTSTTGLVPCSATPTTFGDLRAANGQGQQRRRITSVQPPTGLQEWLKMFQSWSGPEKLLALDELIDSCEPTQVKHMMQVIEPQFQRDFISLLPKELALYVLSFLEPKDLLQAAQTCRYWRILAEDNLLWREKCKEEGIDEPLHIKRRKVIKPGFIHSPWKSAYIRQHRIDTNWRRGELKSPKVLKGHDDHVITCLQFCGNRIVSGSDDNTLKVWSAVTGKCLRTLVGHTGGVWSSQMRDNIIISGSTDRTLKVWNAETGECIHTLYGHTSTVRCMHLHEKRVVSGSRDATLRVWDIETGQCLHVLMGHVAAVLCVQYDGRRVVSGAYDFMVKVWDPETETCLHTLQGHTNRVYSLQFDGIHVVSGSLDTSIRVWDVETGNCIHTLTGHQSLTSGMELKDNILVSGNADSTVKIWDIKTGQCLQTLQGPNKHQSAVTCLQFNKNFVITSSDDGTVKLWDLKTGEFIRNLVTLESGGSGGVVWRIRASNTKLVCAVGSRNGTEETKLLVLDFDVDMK
T1 sequence (P63208 2-163 partner): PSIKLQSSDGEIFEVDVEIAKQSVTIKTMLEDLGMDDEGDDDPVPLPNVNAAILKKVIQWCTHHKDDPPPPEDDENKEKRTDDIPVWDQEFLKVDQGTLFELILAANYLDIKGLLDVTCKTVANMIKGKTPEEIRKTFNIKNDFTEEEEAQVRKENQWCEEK
Description: FBW7^ARG refers to a class of loss-of-function mutations of the of FBW7 ubiquitin ligase that target a key phosphate-binding arginine residue in the FBW7 substrate-binding domain. These mutations are commonly found in human cancers and promote tumorigenesis by impairing the interactions between FBW7 and its substrates, such as cyclin E and Myc. Described herein is a high throughput screen (HTS) to identify agonists, such as small molecules, that augment FBW7^ARG-substrate binding. In an embodiment, the HTS is based on the Amplified Luminescent Proximity Homogenous Assay (ALPHAscreen) because it detects protein-protein interactions with a large dynamic range. ALPHAscreen is a bead-based proximity assay wherein donor beads contain a photosensitizer, phthalocyanine, and acceptor beads contain thioxene, anthracene and rubrenein in sufficient quantities to generate a chemiluminescence/fluorescence reaction (FIG. 4A). Upon excitation with excitation illumination, such as light having a wavelength of 680 nm, of the donor beads, phthalocyanine converts ambient oxygen to singlet oxygen, which can diffuse approximately 200 nm within its 4-microsecond half-life. If an acceptor bead is in close proximity to an excited donor bead, singlet oxygen transfers its energy to the acceptor, resulting in emitted light at a broad bandwidth of −520-620 nm. The HTS-compatible FBW7/cyclin E ALPHAscreen assay described herein uses streptavidin coupled donor beads and Ni-chelate acceptor beads. In this assay, biotinylated cyclin E phosphopeptide and the His-tagged FBW7 mutant protein have high affinity for the donor and acceptor beads, respectively (FIG. 4B). A small molecule that is able to bridge the binding sites of the peptide and the mutant protein (or induce a conformational change that increases affinity of the protein for the peptide) will bring the donor and acceptor beads in close proximity to each other, resulting in an ALPHA signal. As designed, this assay format is a very sensitive, non-radioactive, homogenous “mix-and-read” format that is HT compatible in 384 and 1536 well formats.
In the 384-well screening assay, 10 uL of acceptor beads with 25 nM of the FBW7^ARG (RLFBW7) are dispensed to test wells; acceptor beads with 25 nM of the wt-FBW7 protein (WTFBW7) are dispensed to control wells. Test compounds are then added by pintool transfer and the mixture is incubated for 30 minutes. An additional 10 uL of donor beads with 25 nM cyclin E phosphopeptide is then added to all wells and the plate is incubated for 4 hours before the ALPHA signal is measured.
In preparation for large-scale screening, the assay was miniaturized to a 1536-well format. The miniaturized screen performed outstandingly in all respects. The screen was enhanced with respect to several parameters and assayed its performance using mutant FBW7 and wt-FBW7, as well as non-specific assay agonists. […] For example, the following Z′-scores/FBW7 concentrations were obtained: 6.25 nM/Z′=0.62, 12.5 nm/Z′=0.85, 25.0 nM/Z′=0.84.
1. Add 2.5 uL of RLFBW7/cycE˜P/Ni beads: Final [25 nM/25 nM/10 ug/ml].
2. Add 2.5 uL of WTFBW7/cycE˜P/Ni beads: Final [25 nM/25 nM/10 ug/ml].
4. Add 2.5 uL of SA beads to all wells Final [10 ug/ml],
5. Add 30 nL of compounds,
6. Read ALPHAscreen on Envision
The large-scale FBW7 agonist ALPHAscreen was completed using FBW7^ARG and a phosphorylated cyclin E (pCycE) degron peptide. Wt-FBW7+pCycE-peptide was the “high control”, and Wt-FBW7+unphosph. CycE peptide was the “low control”. The screen was performed on the 645,000-compound Scripps Diversity Library using 1536-well format and drug concentrations of 26.1 μM. An algorithm aided hit identification based on the average percent activation for all compounds and their standard deviation.
A confirmation assay of all 853 compounds in triplicate using a single concentration (26.1 μM). […]

[2] = target: T2, FBW7^ARG (RLFBW7) alone (Homo sapiens, UniProt Q969H0, R505L); test: Counterscreen 1 ALPHAscreen with FBW7^ARG alone (CSRUN1/DCSRUN1); conditions: dose-response counterscreen; for Emax: read-out: RLFBW7 ACT DCSRUN1 Averaged Max % Response
T2 construct: GST (TEV site and flexible linker) (N, cleaved yes); made in house; host or cells: SF9 insect cells (baculovirus)
T2 sequence (Q969H0 64-707 R505L): as the sequence (Q969H0 64-707 R505L) above
T2 sequence (P63208 2-163 partner): as the sequence (P63208 2-163 partner) above
Description: (§1) Studies in 384-well format were performed using the ENVISION system. Reagent concentrations (see FIG. 6A), order of addition, pH (see FIG. 6B), and reducing agent were altered with the goal of enhancing the dynamic range between wt-FBW7 (the positive control) and FBW7^ARG (FIG. 6 and not shown). Wt-FBW7 produced a signal 100× greater with phosphorylated cyclin E degron peptide compared with unphosphorylated, which represents the assay's maximum range (FIG. 6C). […] This assay thus detects the residual affinity of the FBW7^ARG-substrate interaction, which, as predicted, is stronger than wt-FBW7 protein with unphosphorylated cyclin E peptide. Concurrent with this primary assay, counter ALPHAscreens were developed which omitted either FBW7 or peptide (to eliminate hits that are general ALPHAscreen agonists), or used an irrelevant phosphopeptide (to eliminate compounds that simply augment binding to phosphopeptides). […]
(§2) The 77 hits were subjected to a dose-response assay in which each compound was tested in triplicate in a 10 point 3-fold dilutional series, to a maximum concentration of approximately 87 μM. Three screens were performed, using FBW7^ARG+pCycE (DRUN), FBW7^ARG (DCSRUN1), or pCycE alone (DCSRUN2). See TABLES 2, 3, and 4, respectively, and FIG. 10A. All of the assays performed extremely well, and threshold of 10% activation (relative to WT-FBW7+pCycE) was set as positive. […] Many hits fell into shared structure cluster ID groups, reinforcing the idea that they function as specific agonists (see below and TABLE 5).

[3] = system: pCycE alone; test: Counterscreen 2 ALPHAscreen with cyclin E phosphopeptide alone (CSRUN2/DCSRUN2); conditions: for CyCEP ACT DCSRUN2 Averaged Max % Response: activation relative to WT-FBW7+pCycE, averaged maximum; for EC50: dose-response, triplicate, 10 point 3-fold dilutional series, read-out: CyCEP ACT DCSRUN2 Final EC50
Description: as §1, §2

[4] = raw curve fit, read-out: FBW7 ACT EC50 Curve Fit Raw, Molar
[5] = triplicate, 10 point 3-fold dilution, max approx. 87 μM, read-out: FBW7 ACT Final EC50, Molar
[6] = confirmation assay, triplicate, single concentration 26.1 μM, read-out: FBW7 ACT CRUN1 Avg % Response and Stdev
[7] = primary screen, 1536-well, 26.1 μM, FBW7^ARG + pCycE degron peptide, high control wt-FBW7+pCycE, read-out: FBW7 ACT PRUN % Response
[8] = raw curve fit, read-out: RLFBW7 ACT DCSRUN1 EC50 Curve Fit Raw
[9] = read-out: RLFBW7 ACT DCSRUN1 Final EC50

SMILES: Cc1ccc2nc(SCC(=O)Nc3ncc(C)s3)c(C#N)cc2c1 [SR-01000340506-1]
- EC50 [1, 4]: 14.9 µM
- Emax [1]: 10.7%
- EC50 [1, 5]: > 65.3 µM
- activation at 26.1 µM [1, 6]: 3.87 ± 0.19%
- activation at 26.1 µM [1, 7]: 3.77%
- EC50 [2, 8]: 16.2 µM
- Emax [2]: 35.6%
- EC50 [2, 9]: > 65.3 µM
- CyCEP ACT DCSRUN2 Averaged Max % Response [3]: 0.24%
- EC50 [3]: > 65.3 µM

SMILES: CCSCCOC(=O)C1=C(C)NC2=C(C(=O)CCC2)C1c1ccc(Br)cc1 (stereo not drawn) [SR-01000422432-1]
- EC50 [1, 4]: 7.1 µM
- Emax [1]: 7.86%
- EC50 [1, 5]: > 54.4 µM
- activation at 26.1 µM [1, 6]: 5.2 ± 0.56%
- activation at 26.1 µM [1, 7]: 2.03%
- EC50 [2, 8]: 24.5 µM
- Emax [2]: 0.86%
- EC50 [2, 9]: > 54.4 µM
- CyCEP ACT DCSRUN2 Averaged Max % Response [3]: 0.21%
- EC50 [3]: > 54.4 µM

SMILES: COc1ccc(SCC(=O)NNC(=S)Nc2ccccc2)cc1 [SR-01000526835-1]
- EC50 [1, 4]: 7.3 µM
- Emax [1]: 10.1%
- EC50 [1, 5]: > 56.6 µM
- activation at 26.1 µM [1, 6]: 2.1 ± 0.29%
- activation at 26.1 µM [1, 7]: 2.07%
- EC50 [2, 8]: 7.5 µM
- Emax [2]: 2.56%
- EC50 [2, 9]: > 56.6 µM
- CyCEP ACT DCSRUN2 Averaged Max % Response [3]: 2.80%
- EC50 [3]: > 56.6 µM

SMILES: O=C(Nc1ccc2c(c1)OCO2)N1CCC(c2nnc(C3CC3)s2)CC1 [SR-01000922885-1]
- EC50 [1, 4]: 31.9 µM
- Emax [1]: 17.5%
- EC50 [1, 5]: > 65.3 µM
- activation at 26.1 µM [1, 6]: 2.33 ± 0.59%
- activation at 26.1 µM [1, 7]: 2.62%
- EC50 [2, 8]: 24.5 µM
- Emax [2]: 0.2%
- EC50 [2, 9]: > 65.3 µM
- CyCEP ACT DCSRUN2 Averaged Max % Response [3]: 0.08%
- EC50 [3]: > 65.3 µM

SMILES: CCC(C)OC(=O)C1=C(C)NC2=C(C(=O)CC(c3ccccc3)C2)C1c1cccc2ccccc12 (stereo not drawn) [SR-01000423185-1]
- EC50 [1, 4]: 15.9 µM
- Emax [1]: 13%
- EC50 [1, 5]: > 47.6 µM
- activation at 26.1 µM [1, 6]: 5.54 ± 0.29%
- activation at 26.1 µM [1, 7]: 2.18%
- Emax [2]: 8.99%
- EC50 [2, 9]: > 47.6 µM
- CyCEP ACT DCSRUN2 Averaged Max % Response [3]: 11.24%
- EC50 [3]: > 47.6 µM

SMILES: CC(NC(=O)c1cnc2ccccn12)c1ccc(F)cc1 (stereo not drawn) [SR-01000378746-1]
- EC50 [1, 4]: 0.0903 µM
- Emax [1]: 6.66%
- EC50 [1, 5]: > 65.3 µM
- activation at 26.1 µM [1, 6]: 3.47 ± 0.47%
- activation at 26.1 µM [1, 7]: 2.82%
- EC50 [2, 8]: 0.011 µM
- Emax [2]: 1.12%
- EC50 [2, 9]: > 65.3 µM
- CyCEP ACT DCSRUN2 Averaged Max % Response [3]: 0.23%
- EC50 [3]: > 65.3 µM

SMILES: O=C(NCCCN1CCc2ccccc2C1)Nc1ccc(Br)cc1 [SR-01000123578-1]
- EC50 [1, 4]: 0.255 µM
- Emax [1]: 6.18%
- EC50 [1, 5]: > 65.3 µM
- activation at 26.1 µM [1, 6]: 2.32 ± 0.39%
- activation at 26.1 µM [1, 7]: 3.06%
- EC50 [2, 8]: 0.255 µM
- Emax [2]: -0.0757%
- EC50 [2, 9]: > 65.3 µM
- CyCEP ACT DCSRUN2 Averaged Max % Response [3]: 0.28%
- EC50 [3]: > 65.3 µM

SMILES: Cc1c(NC(=O)/C(=C\c2ccccc2)NC(=O)c2ccccc2)c(=O)n(-c2ccccc2)n1C [SR-01000422225-1]
- EC50 [1, 4]: 0.0401 µM
- Emax [1]: 6.91%
- EC50 [1, 5]: > 56.7 µM
- activation at 26.1 µM [1, 6]: 4.37 ± 0.72%
- activation at 26.1 µM [1, 7]: 1.87%
- EC50 [2, 8]: 0.619 µM
- Emax [2]: 0.11%
- EC50 [2, 9]: > 56.7 µM
- CyCEP ACT DCSRUN2 Averaged Max % Response [3]: 0.18%
- EC50 [3]: > 56.7 µM

SMILES: COc1cccc(/C=N/c2cnn(C)c2C(N)=O)c1O [SR-01000314216-1]
- EC50 [1, 4]: 26.4 µM
- Emax [1]: 22.7%
- EC50 [1, 5]: > 65.3 µM
- activation at 26.1 µM [1, 6]: 4.06 ± 0.07%
- activation at 26.1 µM [1, 7]: 3.64%
- Emax [2]: 0.25%
- EC50 [2, 9]: > 65.3 µM
- CyCEP ACT DCSRUN2 Averaged Max % Response [3]: 0.18%
- EC50 [3]: > 65.3 µM

SMILES: CCN(CC)c1ccc2c(c1)OC(N)=C(C#N)C2c1ccccc1 (stereo not drawn) [SR-01000320053-1]
- EC50 [1, 4]: 31.4 µM
- Emax [1]: 13.7%
- EC50 [1, 5]: > 65.3 µM
- activation at 26.1 µM [1, 6]: 2.14 ± 0.69%
- activation at 26.1 µM [1, 7]: 3.43%
- EC50 [2, 8]: 75.4 µM
- Emax [2]: 6.24%
- EC50 [2, 9]: > 65.3 µM
- CyCEP ACT DCSRUN2 Averaged Max % Response [3]: 0.22%
- EC50 [3]: > 65.3 µM

SMILES: COc1ccccc1-c1ccc(=O)n(CC(=O)Nc2ccc(C(=O)N3CCCC3)cc2)n1 [SR-01000332536-1]
- EC50 [1, 4]: 19.1 µM
- Emax [1]: 18%
- EC50 [1, 5]: > 65.3 µM
- activation at 26.1 µM [1, 6]: 4.43 ± 0.25%
- activation at 26.1 µM [1, 7]: 4.09%
- EC50 [2, 8]: 6.3 µM
- Emax [2]: 0.2%
- EC50 [2, 9]: > 65.3 µM
- CyCEP ACT DCSRUN2 Averaged Max % Response [3]: 0.12%
- EC50 [3]: > 65.3 µM

From patent publication US20210047278A1, “E3 UBIQUITIN LIGASE AGONISTS, PHARMACEUTICAL COMPOSITIONS INCLUDING THE E3 UBIQUITIN LIGASE AGONISTS, RELATED METHODS OF USE” (FRED HUTCHINSON CANCER RESEARCH CENTER, priority 2018, published 2021)
